According to US7795235B2, “Semi-soft c-class immunostimulatory oligonucleotides” (Coley Pharmaceutical GmbH, priority 2004, dated 2010):
Oligonucleotides are written 5' to 3', each unit as a sugar letter and its base; * is a phosphorothioate linkage, no mark a phosphodiester; rarer units and linkages stand in square brackets, end groups in braces. Plain capitals give the bases only. d = 2'-deoxy (DNA)

How the values were obtained:
[1] = system: guinea pigs; assay: Antigen-induced increase in nasal resistance in guinea pigs; format: in vivo, guinea pig; details: 0.03-1 mg/kg intranasal, over 40 minutes after challenge, FIG. 2
Protocol: Guinea pigs (male, Hartley) were sensitized with antigen (ovalbumin, 5 mg both intraperitoneal and subcutaneous) on study day 0. A boost sensitization (5 mg, intraperitoneal) was given on study day 4. Guinea pigs were antigen challenged by exposure to intranasally-administered antigen twice each week for two consecutive weeks. The first challenge was on study day 14. SEQ ID NO:7 (lot number AQE-03J-001-M, 0.03-1 mg/kg in […] saline) was administered intranasally once each week, two days before the first antigen challenge of the week. With the exception of the final challenge on study day 24, antigen challenge was with ovalbumin (1.5 mg/kg in 150 μl/kg saline). Animals were pretreated with mepyramine (10 mg/kg, intraperitoneal) 30 minutes before challenge to protect against histamine-induced anaphylaxis. On study day 24, guinea pigs were anesthetized to allow measurement of nasal resistance using a Buxco respiratory mechanics system and software. […] Nasal resistance was measured for 40 minutes after challenge.
Methods: To investigate the effects of the CpG oligodeoxynucleotide SEQ ID NO:7 against antigen induced increases in nasal resistance in the guinea pigs guinea pigs were sensitized with antigen, then antigen-challenged nasally. Nasal resistance was measured for 40 minutes after challenge.

[2] = system: BALB/c mice; assay: Mouse model of allergic rhinitis (sneezing, nasal rubbing); format: in vivo; details: intranasal, 10 minute period after antigen challenge, FIG. 3
Protocol: Mice (male BALB/c) were sensitized on study days 0 and 7 with antigen (ovalbumin, 100 μg, i.p.) with aluminum hydroxide adjuvant (Pierce Alum i.p.). Mice were antigen challenged daily by exposure to intranasally-administered antigen (1 mg in 10 μl saline). The first challenge was on study day 14. SEQ ID NO:7 was administered intranasally twice. The first dose was given 2 days before the first antigen challenge. The second dose was given 7 days later. Alternatively, budesonide (an anti-inflammatory, synthetic corticosteroid) was administered intranasally daily. The first dose was given 2 days before the first antigen challenge. On each day, the budesonide dose was administered intranasally 4 hours before intranasal antigen challenge. Endpoints were measured on study day 26 (i.e. 7 days after the second dose of SEQ ID NO: 7. Nasal tissues were taken for histopathological assessment of inflammation. Separate mice received a final antigen challenge and incidences of sneezing and nasal rubbing were counted for a 10 minute period after challenge.
Methods: BALB/c mice were used to study the effects of SEQ ID NO:7 on symptoms of allergic rhinitis. […] Separate mice received a final antigen challenge and incidences of sneezing and nasal rubbing were counted for a 10 minute period after challenge.

[3] = system: BALB/c mice; assay: Antigen-induced IgE and IgG2a production in the mouse; format: in vivo; details: i.p. 1-1000 μg/kg, serum study day 18, FIG. 19
Protocol: Methods: Mice (male BALB/c) were sensitized on study days 0 and 7 with antigen (ovalbumin, 10 μg, i.p.) and aluminum hydroxide adjuvant Pierce Alum, i.p.). Mice received SEQ ID NO:2 or SEQ ID NO:7 on study days −2, 0, 5 and 7 (i.e. two days before each sensitization and on the day of sensitization). Mice were bled by cardiac puncture on study day 18. Serum was collected by centrifugation and assayed by ELISA for ovalbumin-specific IgE and IgG2a.

[4] = system: guinea pigs; assay: Guinea pig AHR protocol (airway resistance and lung compliance); format: in vivo; details: guinea pigs, 10, 30, 100 or 300 μl/kg, i.t.
Protocol: Male guinea pigs were sensitized on study days 0 and 4 with antigen (ovalbumin, 0.5 ml, 1% OVA i.p./s.c.) with aluminum hydroxide adjuvant. Guinea pigs were antigen challenged by exposure to inhaled ovalbumin aerosol, twice each week for two consecutive weeks. The first challenge was on study day 13. CpG ODN or vehicle (saline, 20 μl) were administered intranasally once each week, two days before the first antigen challenge of the week. Airways hyperreactivity was assessed 24 hours after the last antigen challenge by measuring bronchoconstriction (increase in airway resistance) to intravenous methacholine. For each animal, a dose-response curve to methacholine was obtained, and airway reactivity was quantified as the area under the curve.
Method: Guinea pigs were sensitized as described in Example 10. The first challenge was on study day 13. Guinea pigs were given intranasally either carrier (saline), OVA alone, of concentrations of SEQ ID NO:7 of 10 μl/kg, 30 μl/kg, 100 μl/kg, or 300 μl/kg, i.t.
Method: Guinea pigs were sensitized as described in Example 10. The first challenge was on study day 13. Guinea pigs were given intranasally either carrier (saline), OVA alone, of concentrations of SEQ ID NO:2 of 10 μl/kg, 30 μl/kg, 100 μl/kg, or 300 μl/kg, i.t.

[5] = system: human PBMC; assay: Cytokine secretion (IL-10, TNF-alpha, interferon-gamma, IL-6) from human PBMC; format: cell-based; details: human PBMC (3 donors), 48 hours, ELISA, FIG. 27
Protocol: Peripheral blood buffy coat preparations from healthy male and female human donors were obtained from the Blood Bank of the University of Düsseldorf (Germany) and from these, PBMC were purified by centrifugation over Ficoll-Hypaque (Sigma). The purified PBMC were either used freshly (for most assays) or were suspended in freezing medium and stored at −70° C. When required, aliquots of these cells were thawed, washed and resuspended in RPMI 1640 culture medium (BioWhittaker, Belgium) supplemented with 5% (v/v) heat inactivated human AB serum (BioWhittaker, Belgium) or 10% (v/v) heat inactivated FCS, 2 mM L-glutamine (BioWhittaker), 100 U/ml penicillin and 100 μg/ml streptomycin (Invitrogen (Karlsruhe, Germany)).
Thawed or fresh PBMC were seeded on 48 well flat-bottom plates, or 96 well round-bottom plates, and incubated with ODN in the concentrations as indicated in a humidified incubator at 37° C. Culture supernatants were collected and if not used immediately, were frozen at −20° C. until required. Amounts of cytokines in the supernatants were assessed using commercially available ELISA Kits (Diaclone, USA) or in-house ELISAs developed using commercially available antibodies (from Becton Dickinson/Pharmingen or PBL). […]

[6] = biological target: T1, human TLR9 (Homo sapiens, UniProt Q9NR96); assay: Stimulation of TLR9-transfected cells in vitro (luciferase readout); format: cell-based; details: quotient between highest value of all concentrations tested and medium control
T1 construct: expressed in transfected cells; host or cells: HEK 293
T1 sequence (Q9NR96 26-1032): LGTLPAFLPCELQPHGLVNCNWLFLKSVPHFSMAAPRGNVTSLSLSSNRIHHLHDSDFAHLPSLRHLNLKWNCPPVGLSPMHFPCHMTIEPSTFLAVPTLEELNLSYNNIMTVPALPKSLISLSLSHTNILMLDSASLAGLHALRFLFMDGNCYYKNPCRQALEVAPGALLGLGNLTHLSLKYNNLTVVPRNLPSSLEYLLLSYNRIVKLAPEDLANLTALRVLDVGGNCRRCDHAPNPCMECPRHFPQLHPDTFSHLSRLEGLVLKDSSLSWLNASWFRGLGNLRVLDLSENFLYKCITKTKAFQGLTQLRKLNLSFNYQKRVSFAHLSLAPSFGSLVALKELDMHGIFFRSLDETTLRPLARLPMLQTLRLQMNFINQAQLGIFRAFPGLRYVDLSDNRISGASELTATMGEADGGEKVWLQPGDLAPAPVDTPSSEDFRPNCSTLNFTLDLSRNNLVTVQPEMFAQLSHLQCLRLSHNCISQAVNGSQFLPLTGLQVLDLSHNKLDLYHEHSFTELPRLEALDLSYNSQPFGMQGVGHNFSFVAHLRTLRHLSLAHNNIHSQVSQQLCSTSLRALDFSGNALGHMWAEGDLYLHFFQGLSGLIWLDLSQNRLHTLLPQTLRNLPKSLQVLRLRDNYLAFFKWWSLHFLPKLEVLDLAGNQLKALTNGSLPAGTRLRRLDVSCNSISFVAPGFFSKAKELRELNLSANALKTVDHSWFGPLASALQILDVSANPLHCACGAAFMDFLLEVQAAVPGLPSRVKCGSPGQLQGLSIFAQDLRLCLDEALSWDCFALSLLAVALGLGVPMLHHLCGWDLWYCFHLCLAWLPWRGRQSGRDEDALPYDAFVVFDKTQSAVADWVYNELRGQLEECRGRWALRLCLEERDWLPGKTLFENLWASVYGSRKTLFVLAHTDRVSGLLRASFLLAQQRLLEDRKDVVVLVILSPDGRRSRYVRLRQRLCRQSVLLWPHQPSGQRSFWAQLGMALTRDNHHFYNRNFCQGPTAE
Protocol: Methods: HEK 293 cells transfected with human TLR9 were incubated with SEQ ID NO:1, SEQ ID NO:2, SEQ ID NO:3, SEQ ID NO:4, SEQ ID NO:5, or SEQ ID NO:6 for 16 hours. The signal was determined by a luciferase readout.
The EC50 was calculated using Sigma Plot (SigmaPlot 2002 for Windows version 8.0). The maximal stimulation index (max SI) was calculated as the quotient between the highest value of all concentrations tested for any ODN and the medium control.

T*C_G*T*C_G*T*T*T*T*G*A*C_G*T*T*T*T*G*T*C_G*T*T (DNA dT*dCdG*dT*dCdG*dT*dT*dT*dT*dG*dA*dCdG*dT*dT*dT*dT*dG*dT*dCdG*dT*dT) [SEQ ID NO: 7, Semi-soft class B CpG ODN included for comparison, reference compound]
antigen-induced increase in nasal resistance [1]: significantly suppressed
incidence of nasal rubbing [2]: suppressed
incidence of sneezing [2]: suppressed
production of antigen (ovalbumin)-specific IgE [3]: suppressed
production of antigen (ovalbumin)-specific IgG2a [3]: potentiated
AUC-resistance (airway reactivity, area under the dose-response curve) [4]: dose-dependent reduction

2 (T*C_G*T*C_G*T*C_G*T*T*C_G*G*C*G*C_G*C*G*C*C*G; as printed in the source, key not given here) [compound 2]
induction of IL-10 [5]: dramatically higher induction

T*T*T*C_G*T*C_G*T*T*T*C_G*T*C_G*T*T (DNA TTTCGTCGTTTCGTCGTT; DNA, backbone and methylation of C not given here; Stabilized (*) and phosphodiester or phosphodiester-like (_) linkages) [SEQ ID NO: 6]
max SI (maximal stimulation index) [6]: 11

T*C_G*T*C_G*A*C_G*A*T*C_G*G*C*G*C_G*C*G*C*C*G (DNA TCGTCGACGATCGGCGCGCGCCG; DNA, backbone and methylation of C not given here; Stabilized (*) and phosphodiester or phosphodiester-like (_) linkages) [SEQ ID NO: 4]
max SI (maximal stimulation index) [6]: 14

T*C_G*T*C_G*A*C_G*T*T*C_G*G*C*G*C_G*C*G*C*C*G (DNA dT*dCdG*dT*dCdG*dA*dCdG*dT*dT*dCdG*dG*dC*dG*dCdG*dC*dG*dC*dC*dG) [SEQ ID NO: 1, Semi-soft class C CpG ODN]
max SI (maximal stimulation index) [6]: 22
induction of IL-10 [5]: dramatically higher induction

T*T*C_G*T*C_G*T*T*T*T_G*T*C_G*T*T (DNA TTCGTCGTTTTGTCGTT; DNA, backbone and methylation of C not given here; Stabilized (*) and phosphodiester or phosphodiester-like (_) linkages) [SEQ ID NO: 5]
max SI (maximal stimulation index) [6]: 13

T*C_G*T*C_G*T*T*C_G*G*C*G*C*G*C*C*G (DNA TCGTCGTTCGGCGCGCCG; DNA, backbone and methylation of C not given here; Stabilized (*) and phosphodiester or phosphodiester-like (_) linkages) [SEQ ID NO: 3, Semi-soft class C CpG ODN]
max SI (maximal stimulation index) [6]: 16
